Measurements from US20140171358A1, “ANTIMICROBIAL COMPOSITIONS COMPRISING DGLA AND NEOMYCIN SULFATE AND METHODS OF USE THEREOF” (Dignity Sciences Limited, priority 2012, published 2014).

How the values were obtained:
Assay type in all cases: cell-based
[1] = tested on: P. acnes; test: agar dilution method: growth index and MIC on P. acnes (single compounds and combinations)
Method: Several compounds including fatty acids such as DGLA, 15-OHEPA, and 15-HETrE were tested to determine their capacity to inhibit the growth of P. acnes. In an exemplary method, an agar dilution method was used to determine the minimum inhibitory concentration (MIC) of each tested compound. Briefly, the agar dilution method involved preparing a series of concentrations of each compound (e.g., nicotinamide, benzoyl peroxide, adapalene, metronidazole, DGLA, 15-OHEPA, and 15-HETrE) in a Reinforced Clostridial Agar (RCA) media that facilitates growth of P. acnes under anaerobic conditions. An inoculum of P. acnes was prepared by incubation of P. acnes for approximately seven days at 35-37° C. to achieve a ≧1.0 OD600 inoculum of P. acnes in RCM broth. A portion of this inoculum was then added to the surface of each plate as a 10 μL spot and incubated at 35-37° C. for 72 hours or more. Growth of P. acnes was then observed and compared to control plates in which no compound has been added, and positive inhibition plates prepared with erythromycin. […] The growth of P. acnes in the presence of nicotinamide, benzoyl peroxide, adapalene, metronidazole, DGLA, 15-OHEPA, and 15-HETrE was determined with varying concentrations of the compound (see, Table 2). Next, the MIC was determined as the concentration at which a marked reduction (+) occurs in the appearance of growth on the test plate (as per Clinical and Laboratory Standards Institute M11-A7). The compounds tested singly in Example 1 were tested in combination with one another to determine the capacity of the combination to inhibit the growth of P. acnes. In an exemplary method, the MIC was determined for each of the combination as described in Example 1. Briefly, test combinations included DGLA with nicotinamide, benzoyl peroxide, adapalene, or metronidazole; 15-HETrE with nicotinamide, benzoyl peroxide, adapalene, or metronidazole; and 15-OHEPA with nicotinamide, benzoyl peroxide, adapalene, or metronidazole. The tables below show the growth of P. acnes in the presence of 0.4 or 1.0 mg/mL DGLA with varying concentrations of nicotinamide, benzoyl peroxide, adapalene, or metronidazole (Table 3); the growth of P. acnes in the presence of 0.01 or 0.05 mg/mL 15-HETrE with varying concentrations of nicotinamide, benzoyl peroxide, adapalene, or metronidazole (Table 5); and the growth of P. acnes in the presence of 0.5 or 0.1 mg/mL 15-OHEPA with varying concentrations of nicotinamide, benzoyl peroxide, adapalene, or metronidazole (Table 7).

[2] = tested on: A. brasiliensis; test: paper disc corrected zone of inhibition (CZOI) on Mueller Hinton agar
Method: (§1) The compounds tested in Example 1 were tested to determine their capacity to inhibit the growth of a variety of Gram-negative bacteria, Gram-positive bactgeria, fungi and yeast. In an exemplary method, Mueller Hinton agar plates were streaked with 500 μL of a 10^5 colony-forming units/mL culture and allowed to dry for at least one minute. A sterile paper disc (6 mm diameter) was then placed in the middle of each plate using sterile forceps. Twenty microliters of a solution of a known concentration of a test compound in filter-sterilized 95% ethanol were pipetted onto each test plate. Two streaked plates served as positive inhibitory controls and contained 6 mm sterile paper discs with standard tetracycline solutions. Two additional plates served as negative inhibition controls and each contained 6 mm sterile paper discs with 20 μL of filter-sterilized 95% ethanol. Two more plates served as positive growth controls and contained no paper disc or added antibacterial agent. The plates were incubated at 32.5±2° C. for 24±4 hours, after which the corrected zone of inhibition (“CZOI”) was determined as follows: For each plate, the length Y2 and width X2 of the test sample (paper disc) and length Y1 and width X1 of the clear zone were measured (FIG. 1). The CZOI was calculated from these values as shown by the equation below: [formula]

[3] = tested on: C. albicans; test: as above
Method: as §1

[4] = tested on: C. striatum; test: as above
Method: as §1

[5] = tested on: E. coli; test: as above
Method: as §1

[6] = tested on: E. faecalis; test: as above
Method: as §1

[7] = tested on: K. pneumoniae; test: as above
Method: as §1

[8] = tested on: P. aeroginosa; test: as above
Method: as §1

[9] = tested on: S. aureus; test: as above
Method: as §1

[10] = tested on: S. epidermidis; test: as above
Method: as §1

**Q.** For `CCCCC/C=C\C/C=C\C/C=C\CCCCCCC(=O)O` [DGLA, cis-8,11,14-eicosatrienoic acid], which “effect on growth of P. acnes on its own” value ([1]; 0.4 mg/ml) is on record?
**A.** The value was “no effect on its own”.

**Q.** And the MIC ([1]; Cutibacterium acnes, compound alone, read-out: MIC (mg/mL) as per P-11-0007 or P-11-0008 Addendum A)?
**A.** Its MIC is 0.4 to 0.6 mg/mL.

**Q.** What about the “Average CZOI” value ([2]; 0.6 mg/mL) of the same molecule?
**A.** Its value is 1.5 mm.

**Q.** And the “Average CZOI” value ([2]; 0.8 mg/mL)?
**A.** Its value is 4 mm.

**Q.** And the “Average CZOI” value ([2]; 1.0 mg/mL)?
**A.** Its value is 2.75 mm.

**Q.** And the “Average CZOI” value ([2]; 1.2 mg/mL)?
**A.** The value was 1.75 mm.

**Q.** What about the “Average CZOI” value ([2]; 1.4 mg/mL) of the same molecule?
**A.** The value was 2.25 mm.

**Q.** What about the “Lowest Concentration With Observed Inhibition” value ([2]; A. brasiliensis) of the same molecule?
**A.** Its value is 0.6 mg/mL.

**Q.** What about the “Most Effective Concentration Observed” value ([2]; A. brasiliensis) of the same molecule?
**A.** Its value is 0.8 mg/mL.

**Q.** And the “Average CZOI” value ([3]; 0.6 mg/mL)?
**A.** The value was 1 mm.

**Q.** And the “Average CZOI” value ([3]; 0.8 mg/mL)?
**A.** The value was 0.75 mm.

**Q.** What about the “Average CZOI” value ([3]; 1.0 mg/mL) of the same molecule?
**A.** The value was 1.75 mm.

**Q.** And the “Average CZOI” value ([3]; 1.2 mg/mL)?
**A.** The value was 2 mm.

**Q.** And the “Average CZOI” value ([3]; 1.4 mg/mL)?
**A.** Its value is 3 mm.

**Q.** What about the “Lowest Concentration With Observed Inhibition” value ([3]; C. albicans) of the same molecule?
**A.** The value was 0.6 mg/mL.

**Q.** And the “Most Effective Concentration Observed” value ([3]; C. albicans)?
**A.** The value was 1.4 mg/mL.

**Q.** What about the “Average CZOI” value ([4]; 0.6 mg/mL) of the same molecule?
**A.** Its value is 3.75 mm.

**Q.** What about the “Average CZOI” value ([4]; 0.8 mg/mL) of the same molecule?
**A.** Its value is 2.75 mm.

**Q.** And the “Average CZOI” value ([4]; 1.0 mg/mL)?
**A.** Its value is 2 mm.

**Q.** What about the “Average CZOI” value ([4]; 1.2 mg/mL) of the same molecule?
**A.** Its value is 4.75 mm.

**Q.** And the “Average CZOI” value ([4]; 1.4 mg/mL)?
**A.** The value was 2.75 mm.

**Q.** What about the “Lowest Concentration With Observed Inhibition” value ([4]; C. striatum) of the same molecule?
**A.** Its value is 0.6 mg/mL.

**Q.** And the “Most Effective Concentration Observed” value ([4]; C. striatum)?
**A.** The value was 1.2 mg/mL.

**Q.** What about the “Average CZOI” value ([5]; 0.6 mg/mL) of the same molecule?
**A.** The value was 1 mm.

**Q.** And the “Average CZOI” value ([5]; 0.8 mg/mL)?
**A.** The value was 1 mm.

**Q.** And the “Average CZOI” value ([5]; 1.0 mg/mL)?
**A.** Its value is 1.5 mm.

**Q.** What about the “Average CZOI” value ([5]; 1.2 mg/mL) of the same molecule?
**A.** The value was 0.5 mm.

**Q.** What about the “Average CZOI” value ([5]; 1.4 mg/mL) of the same molecule?
**A.** The value was 0.25 mm.

**Q.** And the “Lowest Concentration With Observed Inhibition” value ([5]; E. coli)?
**A.** The value was 0.6 mg/mL.

**Q.** What about the “Most Effective Concentration Observed” value ([5]; E. coli) of the same molecule?
**A.** The value was 1.0 mg/mL.

**Q.** What about the “Average CZOI” value ([6]; 0.6 mg/mL) of the same molecule?
**A.** The value was 3.25 mm.

**Q.** What about the “Average CZOI” value ([6]; 0.8 mg/mL) of the same molecule?
**A.** The value was 3 mm.

**Q.** What about the “Average CZOI” value ([6]; 1.0 mg/mL) of the same molecule?
**A.** The value was 5 mm.

**Q.** What about the “Average CZOI” value ([6]; 1.2 mg/mL) of the same molecule?
**A.** The value was 2 mm.

**Q.** What about the “Average CZOI” value ([6]; 1.4 mg/mL) of the same molecule?
**A.** The value was 1.75 mm.

**Q.** What about the “Lowest Concentration With Observed Inhibition” value ([6]; E. faecalis) of the same molecule?
**A.** The value was 0.6 mg/mL.

**Q.** What about the “Most Effective Concentration Observed” value ([6]; E. faecalis) of the same molecule?
**A.** The value was 1.0 mg/mL.

**Q.** And the “Average CZOI” value ([7]; 0.6 mg/mL)?
**A.** The value was 1.75 mm.

**Q.** What about the “Average CZOI” value ([7]; 0.8 mg/mL) of the same molecule?
**A.** The value was 2 mm.

**Q.** What about the “Average CZOI” value ([7]; 1.0 mg/mL) of the same molecule?
**A.** Its value is 2.75 mm.

**Q.** What about the “Average CZOI” value ([7]; 1.2 mg/mL) of the same molecule?
**A.** Its value is 2 mm.

**Q.** And the “Average CZOI” value ([7]; 1.4 mg/mL)?
**A.** The value was 1.25 mm.

**Q.** What about the “Lowest Concentration With Observed Inhibition” value ([7]; K. pneumoniae) of the same molecule?
**A.** Its value is 0.6 mg/mL.

**Q.** What about the “Most Effective Concentration Observed” value ([7]; K. pneumoniae) of the same molecule?
**A.** Its value is 1.0 mg/mL.

**Q.** And the “Average CZOI” value ([8]; 0.6 mg/mL)?
**A.** Its value is 1 mm.

**Q.** What about the “Average CZOI” value ([8]; 0.8 mg/mL) of the same molecule?
**A.** The value was 1 mm.

**Q.** What about the “Average CZOI” value ([8]; 1.0 mg/mL) of the same molecule?
**A.** Its value is 1 mm.

**Q.** What about the “Average CZOI” value ([8]; 1.2 mg/mL) of the same molecule?
**A.** The value was 1 mm.

**Q.** And the “Average CZOI” value ([8]; 1.4 mg/mL)?
**A.** The value was 1 mm.

**Q.** And the “Lowest Concentration With Observed Inhibition” value ([8]; P. aeroginosa)?
**A.** The value was 0.6 mg/mL.

**Q.** What about the “Most Effective Concentration Observed” value ([8]; P. aeroginosa) of the same molecule?
**A.** Its value is 0.6 mg/mL.

**Q.** What about the “Average CZOI” value ([9]; 0.6 mg/mL) of the same molecule?
**A.** The value was 1.25 mm.

**Q.** What about the “Average CZOI” value ([9]; 0.8 mg/mL) of the same molecule?
**A.** The value was 3 mm.

**Q.** What about the “Average CZOI” value ([9]; 1.0 mg/mL) of the same molecule?
**A.** Its value is 3 mm.

**Q.** And the “Average CZOI” value ([9]; 1.2 mg/mL)?
**A.** The value was 3 mm.

**Q.** And the “Average CZOI” value ([9]; 1.4 mg/mL)?
**A.** Its value is 2 mm.

**Q.** And the “Lowest Concentration With Observed Inhibition” value ([9]; S. aureus)?
**A.** Its value is 0.6 mg/mL.

**Q.** What about the “Most Effective Concentration Observed” value ([9]; S. aureus) of the same molecule?
**A.** The value was 0.8 mg/mL.

**Q.** What about the “Average CZOI” value ([10]; 0.6 mg/mL) of the same molecule?
**A.** The value was 4.75 mm.

**Q.** And the “Average CZOI” value ([10]; 0.8 mg/mL)?
**A.** Its value is 3.25 mm.

**Q.** What about the “Average CZOI” value ([10]; 1.0 mg/mL) of the same molecule?
**A.** The value was 6.5 mm.

**Q.** What about the “Average CZOI” value ([10]; 1.2 mg/mL) of the same molecule?
**A.** Its value is 3 mm.

**Q.** What about the “Average CZOI” value ([10]; 1.4 mg/mL) of the same molecule?
**A.** Its value is 1 mm.

**Q.** What about the “Lowest Concentration With Observed Inhibition” value ([10]; S. epidermidis) of the same molecule?
**A.** Its value is 0.6 mg/mL.

**Q.** What about the “Most Effective Concentration Observed” value ([10]; S. epidermidis) of the same molecule?
**A.** The value was 1.0 mg/mL.
